Test [1] addresses T1, 5-LOX (Rattus norvegicus, UniProt P12527).
T1 sequence (P12527 1-673): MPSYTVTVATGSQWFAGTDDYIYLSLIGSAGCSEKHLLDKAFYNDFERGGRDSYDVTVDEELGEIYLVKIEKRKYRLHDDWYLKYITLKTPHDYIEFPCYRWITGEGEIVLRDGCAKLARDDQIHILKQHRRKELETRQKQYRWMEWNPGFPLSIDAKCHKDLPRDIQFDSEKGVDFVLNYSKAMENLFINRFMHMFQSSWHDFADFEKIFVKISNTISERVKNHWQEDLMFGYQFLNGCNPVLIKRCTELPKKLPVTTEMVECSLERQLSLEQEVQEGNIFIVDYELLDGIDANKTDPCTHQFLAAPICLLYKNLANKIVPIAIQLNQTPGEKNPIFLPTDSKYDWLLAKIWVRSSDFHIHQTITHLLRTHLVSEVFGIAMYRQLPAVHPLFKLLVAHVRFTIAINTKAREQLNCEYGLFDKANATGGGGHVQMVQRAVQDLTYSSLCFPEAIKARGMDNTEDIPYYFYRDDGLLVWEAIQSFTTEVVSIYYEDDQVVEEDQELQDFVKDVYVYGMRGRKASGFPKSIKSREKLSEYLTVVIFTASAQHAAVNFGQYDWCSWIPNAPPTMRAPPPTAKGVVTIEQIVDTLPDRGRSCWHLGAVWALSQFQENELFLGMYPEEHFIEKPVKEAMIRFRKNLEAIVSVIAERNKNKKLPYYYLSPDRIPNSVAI
Briefly: Inhibition of 5-LOX product synthesis. Format: cell-based. Conditions: for inhibition at 5 µM: PMNL, read-out: Inhibition at 5 μmol/L (%); for IC50: rat peritoneal polymorphonuclear leukocytes; for Inhibition at 5 μmol/L (%): rat PMNLs, mean of three determinations.

The target in test [2] is T2, 5-LOX (Homo sapiens, UniProt P09917).
T2 sequence (P09917 1-674): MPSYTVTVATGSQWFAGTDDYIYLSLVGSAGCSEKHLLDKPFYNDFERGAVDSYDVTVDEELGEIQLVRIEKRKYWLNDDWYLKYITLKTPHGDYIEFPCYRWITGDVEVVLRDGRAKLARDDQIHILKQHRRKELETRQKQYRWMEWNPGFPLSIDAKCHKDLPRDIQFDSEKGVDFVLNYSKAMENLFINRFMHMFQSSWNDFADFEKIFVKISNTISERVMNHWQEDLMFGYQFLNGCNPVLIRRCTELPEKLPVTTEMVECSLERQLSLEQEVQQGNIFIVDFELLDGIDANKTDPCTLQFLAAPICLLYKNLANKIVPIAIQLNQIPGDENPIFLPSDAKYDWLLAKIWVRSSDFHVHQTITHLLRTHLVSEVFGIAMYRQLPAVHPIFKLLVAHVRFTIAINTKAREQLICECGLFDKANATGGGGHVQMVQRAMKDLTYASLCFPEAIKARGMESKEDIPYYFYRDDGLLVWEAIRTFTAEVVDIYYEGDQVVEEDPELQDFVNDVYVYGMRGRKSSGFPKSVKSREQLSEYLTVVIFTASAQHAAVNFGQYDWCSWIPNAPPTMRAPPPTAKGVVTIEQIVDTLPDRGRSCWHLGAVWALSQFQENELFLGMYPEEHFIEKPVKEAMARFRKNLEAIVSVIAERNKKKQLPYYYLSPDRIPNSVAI
Briefly: Inhibition of 5-LOX product synthesis. The format is cell-based.

For test [3], the target named is T2, 5-LOX. Briefly: Cell-free 5-LOX enzymatic assay. Format: biochemical.

The source of these data is publication PMC4724694 (Acta Pharmaceutica Sinica. B, 2016).

Where two headings read alike, the source gives them in different places.

Broadly, the IC50 is the point on the concentration scale where inhibition reaches its midpoint. For orientation: Inhibition means the share of the control response that was lost under treatment. Higher therefore signals a strong effect.

Consider `CC(C)(C)c1cc(NC(=O)c2cc(-c3ccccc3)n(-c3ccc(S(N)(=O)=O)cc3)n2)cc(C(C)(C)C)c1O` [4a, N-(3,5-di-tert-butyl-4-hydroxyphenyl)-1-(4-aminosulfonyl-phenyl)-5-phenyl-1H-pyrazole-3-carboxamide], for which, at 5-LOX [1], the inhibition at 5 µM is 55.7%.
Turning to `Cc1ccc(-c2cc(C(=O)Nc3cc(C(C)(C)C)c(O)c(C(C)(C)C)c3)nn2-c2ccc(S(N)(=O)=O)cc2)cc1` [4b, N-(3,5-di-tert-butyl-4-hydroxyphenyl)-1-(4-aminosulfonylphenyl)-5-p-tolyl-1H-pyrazole-3-carboxamide], the inhibition at 5 µM on 5-LOX [1] was 65.7%.
For the compound `COc1ccc(-c2cc(C(=O)Nc3cc(C(C)(C)C)c(O)c(C(C)(C)C)c3)nn2-c2ccc(S(N)(=O)=O)cc2)cc1` [4c, N-(3,5-di-tert-butyl-4-hydroxyphenyl)-1-(4-aminosulfonylphenyl)-5-p-meth-oxyphenyl-1H-pyrazole-3-carboxamide], the IC50 on 5-LOX [1] (IC50 PMNL) amounted to 0.45 µM; against 5-LOX [2] it was 4.87 µM; against 5-LOX [3], 0.136 ± 0.015 µM. The inhibition at 5 µM at 5-LOX [1] stood at 74.9%.
Consider `CC(C)Cc1ccc(-c2cc(C(=O)Nc3cc(C(C)(C)C)c(O)c(C(C)(C)C)c3)nn2-c2ccc(S(N)(=O)=O)cc2)cc1` [4d, N-(3,5-di-tert-butyl-4-hydroxyphenyl)-1-(4-aminosulfonylphenyl)-5-p-iso-butylphenyl-1H-pyrazole-3-carboxamide], for which the inhibition at 5 µM on 5-LOX [1] stood at 59%.
Turning to `CC(C)(C)c1cc(NC(=O)c2cc(-c3ccc4c(c3)OCCO4)n(-c3ccc(S(N)(=O)=O)cc3)n2)cc(C(C)(C)C)c1O` [4f, N-(3,5-di-tert-butyl-4-hydroxyphenyl)-5-(2,3-dihydrobenzo [1, 4]dioxin-7-yl)-1-(4-aminosulfonylphenyl)-1H-pyrazole-3-carboxamide], at 5-LOX [1], the inhibition at 5 µM is 50.7%.
Take `CC(C)(C)c1cc(NC(=O)c2cc(-c3ccc4ccccc4c3)n(-c3ccc(S(N)(=O)=O)cc3)n2)cc(C(C)(C)C)c1O` [4g, N-(3,5-di-tert-butyl-4-hydroxyphenyl)-1-(4-aminosulfonylphenyl)-5-naphth-2-yl-1H-pyrazole-3-carboxamide]: the figures for the IC50 at 5-LOX [1] (IC50 PMNL), against 5-LOX [2] and against 5-LOX [3] were 0.75 µM, 2.11 µM and 0.165 ± 0.017 µM, respectively. For the same compound, the inhibition at 5 µM at 5-LOX [1] came to 66.1%.
`CC(C)(C)c1cc(NC(=O)c2cc(-c3ccc(F)cc3)n(-c3ccc(S(N)(=O)=O)cc3)n2)cc(C(C)(C)C)c1O` [4h, N-(3,5-di-tert-butyl-4-hydroxyphenyl)-1-(4-aminosulfonylphenyl)-5-p-fluorophenyl-1H-pyrazole-3-carboxamide]: the inhibition at 5 µM on 5-LOX [1] was 39.3%.
As for `CC(C)(C)c1cc(NC(=O)c2cc(-c3ccc(C(F)(F)F)cc3)n(-c3ccc(S(N)(=O)=O)cc3)n2)cc(C(C)(C)C)c1O` [4i, N-(3,5-di-tert-butyl-4-hydroxyphenyl)-1-(4-aminosulfonylphenyl)-5-p-trifluoromethylphenyl-1H-pyrazole-3-carboxamide], at 5-LOX [1], the “Inhibition at 5 μmol/L (%)” value is given as 61.9%.
As to `CC(C)(C)c1cc(NC(=O)c2cc(C3CCCCC3)n(-c3ccc(S(N)(=O)=O)cc3)n2)cc(C(C)(C)C)c1O` [4j, N-(3,5-di-tert-butyl-4-hydroxyphenyl)-1-(4-aminosulfonylphenyl)-5-cyclo-hexyl-1H-pyrazole-3-carboxamide], the half-maximal inhibitory concentration (IC50) against 5-LOX [1] (IC50 PMNL) amounted to 1.07 µM; against 5-LOX [2], 33.9 µM. In addition, the inhibition at 5 µM at 5-LOX [1] worked out at 69.2%.
For the compound `CC(C)(C)c1cc(NC(=O)c2cc(-c3ccc(Br)s3)n(-c3ccc(S(N)(=O)=O)cc3)n2)cc(C(C)(C)C)c1O` [4k, N-(3,5-di-tert-butyl-4-hydroxyphenyl)-1-(4-aminosulfonylphenyl)-5-(5-bromothiophen-2-yl)-1H-pyrazole-3-carboxamide], the figures for the IC50 against 5-LOX [1] (IC50 PMNL), on 5-LOX [2] and on 5-LOX [3] were 0.9 µM, 5.83 µM and 0.159 ± 0.016 µM, respectively. For the same compound, at 5-LOX [1], the inhibition at 5 µM is 74.5%.
On to `CC(C)(C)c1cc(NC(=O)c2cc(-c3ccccc3)n(-c3ccc(S(C)(=O)=O)cc3)n2)cc(C(C)(C)C)c1O` [5a, N-(3,5-di-tert-butyl-4-hydroxyphenyl)-1-(4-methylsulfonylphenyl)-5-phenyl-1H-pyrazole-3-carboxamide], for which the inhibition at 5 µM at 5-LOX [1] is 41.9%.
Regarding `Cc1ccc(-c2cc(C(=O)Nc3cc(C(C)(C)C)c(O)c(C(C)(C)C)c3)nn2-c2ccc(S(C)(=O)=O)cc2)cc1` [5b, N-(3,5-di-tert-butyl-4-hydroxyphenyl)-1-(4-methylsulfonylphenyl)-5-p-tolyl-1H-pyrazole-3-carboxamide], at 5-LOX [1], the inhibition at 5 µM is 62.8%.
Regarding `COc1ccc(-c2cc(C(=O)Nc3cc(C(C)(C)C)c(O)c(C(C)(C)C)c3)nn2-c2ccc(S(C)(=O)=O)cc2)cc1` [5c, N-(3,5-di-tert-butyl-4-hydroxyphenyl)-1-(4-methylsulfonylphenyl)-5-p-methoxyphenyl-1H-pyrazole-3-carboxamide], the inhibition at 5 µM at 5-LOX [1] came to 35.6%.
On to `CC(C)Cc1ccc(-c2cc(C(=O)Nc3cc(C(C)(C)C)c(O)c(C(C)(C)C)c3)nn2-c2ccc(S(C)(=O)=O)cc2)cc1` [5d, N-(3,5-di-tert-butyl-4-hydroxyphenyl)-1-(4-methylsulfonylphenyl)-5-p-iso-butylphenyl-1H-pyrazole-3-carboxamide], for which the inhibition at 5 µM at 5-LOX [1] is 60.2%.
On to `CC(C)(C)c1cc(NC(=O)c2cc(-c3ccc4c(c3)OCO4)n(-c3ccc(S(C)(=O)=O)cc3)n2)cc(C(C)(C)C)c1O` [5e, N-(3,5-di-tert-butyl-4-hydroxyphenyl)-5-(benzo [1, 3]dioxol-5-yl)-1-(4-methylsulfonylphenyl)-1H-pyrazole-3-carboxamide], for which the IC50 was 0.64 µM on 5-LOX [1] (IC50 PMNL), 0.94 µM against 5-LOX [2] and 0.169 ± 0.016 µM against 5-LOX [3]. The inhibition at 5 µM on 5-LOX [1] came out at 79.3%.
In the same order, the values of `CC(C)(C)c1cc(NC(=O)c2cc(-c3ccc4c(c3)OCCO4)n(-c3ccc(S(C)(=O)=O)cc3)n2)cc(C(C)(C)C)c1O` [5f, N-(3,5-di-tert-butyl-4-hydroxyphenyl)-5-(2,3-dihydrobenzo [1, 4]dioxin-7-yl)-1-(4-methylsulfonylphenyl)-1H-pyrazole-3-carboxamide] are 0.81 µM, 4.65 µM, 0.273 ± 0.021 µM and 70.3%.
Turning to `CC(C)(C)c1cc(NC(=O)c2cc(-c3ccc4ccccc4c3)n(-c3ccc(S(C)(=O)=O)cc3)n2)cc(C(C)(C)C)c1O` [5g, N-(3,5-di-tert-butyl-4-hydroxyphenyl)-1-(4-methylsulfonylphenyl)-5-naphth-2-yl-1H-pyrazole-3-carboxamide], the inhibition at 5 µM at 5-LOX [1] is 51.7%.
For `CC(C)(C)c1cc(NC(=O)c2cc(-c3ccc(C(F)(F)F)cc3)n(-c3ccc(S(C)(=O)=O)cc3)n2)cc(C(C)(C)C)c1O` [5i, N-(3,5-di-tert-butyl-4-hydroxyphenyl)-1-(4-methylsulfonylphenyl)-5-p-tri-fluoromethylphenyl-1H-pyrazole-3-carboxamide], the “Inhibition at 5 μmol/L (%)” value on 5-LOX [1] turned out to be 69.6%. For the same compound, the half-inhibitory concentration (IC50) at 5-LOX [1] (read-out: IC50 PMNL) was 0.8 µM; on 5-LOX [2] (read-out: IC50 HWB, human whole blood), 1.13 µM; at 5-LOX [3] (read-out: IC50 Enzymatic assay, cell-free, human 5-LOX, triplicate), 0.127 ± 0.029 µM.
Turning to `CC(C)(C)c1cc(NC(=O)c2cc(C3CCCCC3)n(-c3ccc(S(C)(=O)=O)cc3)n2)cc(C(C)(C)C)c1O` [5j, N-(3,5-di-tert-butyl-4-hydroxyphenyl)-1-(4-methylsulfonylphenyl)-5-cyclo-hexyl-1H-pyrazole-3-carboxamide], the inhibition at 5 µM at 5-LOX [1] came to 57.3%.
Same read-out and setting: the same measure for `CC(C)(C)c1cc(NC(=O)c2cc(-c3ccccc3)n(-c3ccc(F)cc3)n2)cc(C(C)(C)C)c1O` [6a, N-(3,5-di-tert-butyl-4-hydroxyphenyl)-1-(4-fluorophenyl)-5-phenyl-1H-pyrazole-3-carboxamide]: 56.8%.
